Numbered stars: 1 amine (or outer) side, 2 acyl side, 3 side chain; on linkers, the order of the positions; unused ones are H or OH. Square brackets hold non-standard residues; d marks the D form. Side chains are listed from the residue outwards. Peptide text beside a SMILES is read from it. * marks the point of attachment. Decanoyl(10-(4-HOOC-PhO)) = O=C(O)c1ccc(OCCCCCCCCCC(=O)*)cc1; Lac(3-(imidazol-4-yl)) = O=C(O)[C@@H](O)Cc1c[nH]cn1; γGlu = O=C(O)[C@H](CCC(=O)[*:2])N[*:1]; NMeI = CC[C@H](C)[C@H](NC)C(=O)O; AEEA = NCCOCCOCC(=O)O; Sar = CNCC(=O)O
Columns and labels:
[1] = Prodrug half-life in vitro, plasma method (minipig heparin plasma); type: in vitro ADME; settings: minipig heparin plasma 800 μL + 200 μL 200 mM phosphate pH 7.4, 37° C.; UPLC_A, or UPLC_B for compounds marked *; read-out: T½ in plasma (converted)
Procedure: (§1) The purpose of this example is to test the in vitro half-lives (T½) of the GLP-1 prodrugs of the invention, in comparison to conceptually different prodrugs. In what follows two in vitro methods are described, viz. a method conducted in buffer, and a method conducted in plasma.
(§2) The half life of the prodrug (T½) was calculated from the slope of a linear fit to the curve of ln(% prodrug (Y)) as a function of time (t), as follows: Y=÷αt+k Math. 1 T½=ln(2)/α Math. 2 Plasma Method Buffer: 200 mM Phosphate, pH 7.4 at 37° C.
NaH2PO4.2H2O (15.61 g, 100 mmol) was dissolved in milliQ water (approximately 450 mL) and adjusted to pH=7.44 at approximately 20° C. with concentrated NaOH (aq) and 1 M NaOH (aq). Water was added to 500.00 mL.
Serum: Minipig Serum, Heparin-Plasma
Fresh blood was tapped from minipig into 9 mL LH lithium heparin Vacuette tubes from Greiner bio-one (catalogue number 455084). After cooling on ice it was centrifuged (10 min, 4° C., 3000 rpm/1942G) and the supernatant isolated and kept at −18° C. before use.
100 nmol of the compound to be tested was dissolved in 200 μL buffer, added to 800 μL plasma (centrifuged), and incubated at 37° C. Samples (50 μL) were drawn at appropriate intervals into 150 μL absolute EtOH. After a short stirring the sample was centrifuged and the supernatant transferred to the UPLC vial (10 μL injection).
The % parent drug compared to prodrug formed as a function of time was evaluated by UPLC, and the half-life calculated, both in the same way as described above under the Buffer method.

[2] = Prodrug half-life in vitro, buffer method; type: physicochemical; settings: 25 mM phosphate buffer pH 7.4, 37° C., 1.0 mg/mL; UPLC_A, or UPLC_B for compounds marked *; read-out: T½ in buffer (converted)
Procedure: as §1
Buffer: 25 mM Phosphate (Ionic strength: 154 mM, pH 7.4 at 37° C.)
NaH2PO4.2H2O (1.95 g, 12.5 mmol) and NaCl (2.61 g, 44.7 mmol) were dissolved in millipore water (approximately 450 mL) and adjusted to pH=7.44 at approximately 20° C. with concentrated NaOH and 1 M NaOH. Water was added to 500.00 mL.
The compound to be tested was dissolved in buffer to a concentration of 1.0 mg/mL and incubated at 37° C. Samples were taken at adequate intervals and the % parent drug compared to prodrug formed as function of time was evaluated by the UPLC method as referred to in Table 1 by comparing the areas under the curves for the two corresponding peaks. These UPLC methods are described in the general experimental section above (UPLC_A, and UPLC_B).
as §2
The resulting half-lives are set out in Table 1 below. For comparison, the T½ in buffer of native GLP-1(7-37) (His7 variant of SEQ ID NO: 1) was 13 minutes (0.2 hours).

Compound	half-life [1] [h]	half-life at 1 mg/mL [2] [h]	half-life [2] [h]
CC[C@H](C)[C@H](NC(=O)[C@H](Cc1ccccc1)NC(=O)[C@H](CCC(=O)O)NC(=O)[C@H](CCCNC(=N)N)NC(=O)[C@@H](NC(=O)[C@H](C)NC(=O)[C@H](CCC(N)=O)NC(=O)[C@H](CCC(=O)O)NC(=O)[C@H](CCC(=O)O)NC(=O)[C@H](CC(C)C)NC(=O)[C@H](Cc1ccc(O)cc1)NC(=O)[C@H](CCCCNC(=O)COCCOCCNC(=O)COCCOCCNC(=O)CC[C@H](NC(=O)CCCCCCCCCOc1ccc(C(=O)O)cc1)C(=O)O)NC(=O)[C@H](CO)NC(=O)[C@@H](NC(=O)[C@H](CC(=O)O)NC(=O)[C@H](CO)NC(=O)[C@@H](NC(=O)[C@H](Cc1ccccc1)NC(=O)[C@@H](NC(=O)CNC(=O)[C@H](CCC(=O)O)NC(=O)[C@H](C)NC(=O)[C@H](Cc1c[nH]cn1)OC(=O)[C@@H](NC(=O)[C@@H](N)C(C)C)C(C)C)[C@@H](C)O)[C@@H](C)O)C(C)C)C(C)C)C(=O)N[C@@H](C)C(=O)N[C@@H](CCCCNC(=O)COCCOCCNC(=O)COCCOCCNC(=O)CC[C@H](NC(=O)CCCCCCCCCOc1ccc(C(=O)O)cc1)C(=O)O)C(=O)N[C@@H](CC(C)C)C(=O)N[C@H](C(=O)N[C@@H](CCCNC(=N)N)C(=O)NCC(=O)N[C@@H](CCCNC(=N)N)C(=O)NCC(=O)O)C(C)C [Example 2a] (H-VV[Lac(3-(imidazol-4-yl))]AEGTFTSDVSK([AEEA-AEEA-γGlu-Decanoyl(10-(4-HOOC-PhO))])YLEEQAVREFIAK([AEEA-AEEA-γGlu-Decanoyl(10-(4-HOOC-PhO))])LVRGRG-OH)	4.6	10.5	–
CC[C@H](C)[C@H](NC(=O)[C@H](Cc1ccccc1)NC(=O)[C@H](CCC(=O)O)NC(=O)[C@H](CCCNC(=N)N)NC(=O)[C@@H](NC(=O)[C@H](C)NC(=O)[C@H](CCC(N)=O)NC(=O)[C@H](CCC(=O)O)NC(=O)[C@H](CCC(=O)O)NC(=O)[C@H](CC(C)C)NC(=O)[C@H](Cc1ccc(O)cc1)NC(=O)[C@H](CCCCNC(=O)COCCOCCNC(=O)COCCOCCNC(=O)CC[C@H](NC(=O)CCCCCCCCCOc1ccc(C(=O)O)cc1)C(=O)O)NC(=O)[C@H](CO)NC(=O)[C@@H](NC(=O)[C@H](CC(=O)O)NC(=O)[C@H](CO)NC(=O)[C@@H](NC(=O)[C@H](Cc1ccccc1)NC(=O)[C@@H](NC(=O)CNC(=O)[C@H](CCC(=O)O)NC(=O)[C@H](C)NC(=O)[C@H](Cc1c[nH]cn1)OC(=O)[C@@H](NC(=O)CNC)C(C)C)[C@@H](C)O)[C@@H](C)O)C(C)C)C(C)C)C(=O)N[C@@H](C)C(=O)N[C@@H](CCCCNC(=O)COCCOCCNC(=O)COCCOCCNC(=O)CC[C@H](NC(=O)CCCCCCCCCOc1ccc(C(=O)O)cc1)C(=O)O)C(=O)N[C@@H](CC(C)C)C(=O)N[C@H](C(=O)N[C@@H](CCCNC(=N)N)C(=O)NCC(=O)N[C@@H](CCCNC(=N)N)C(=O)NCC(=O)O)C(C)C [Example 1] (H-[Sar]V[Lac(3-(imidazol-4-yl))]AEGTFTSDVSK([AEEA-AEEA-γGlu-Decanoyl(10-(4-HOOC-PhO))])YLEEQAVREFIAK([AEEA-AEEA-γGlu-Decanoyl(10-(4-HOOC-PhO))])LVRGRG-OH)	3.6	9.6	–
CC[C@H](C)[C@H](NC)C(=O)N[C@H](C(=O)O[C@@H](Cc1c[nH]cn1)C(=O)N[C@@H](C)C(=O)N[C@@H](CCC(=O)O)C(=O)NCC(=O)N[C@H](C(=O)N[C@@H](Cc1ccccc1)C(=O)N[C@H](C(=O)N[C@@H](CO)C(=O)N[C@@H](CC(=O)O)C(=O)N[C@H](C(=O)N[C@@H](CO)C(=O)N[C@@H](CCCCNC(=O)COCCOCCNC(=O)COCCOCCNC(=O)CC[C@H](NC(=O)CCCCCCCCCOc1ccc(C(=O)O)cc1)C(=O)O)C(=O)N[C@@H](Cc1ccc(O)cc1)C(=O)N[C@@H](CC(C)C)C(=O)N[C@@H](CCC(=O)O)C(=O)N[C@@H](CCC(=O)O)C(=O)N[C@@H](CCC(N)=O)C(=O)N[C@@H](C)C(=O)N[C@H](C(=O)N[C@@H](CCCNC(=N)N)C(=O)N[C@@H](CCC(=O)O)C(=O)N[C@@H](Cc1ccccc1)C(=O)N[C@H](C(=O)N[C@@H](C)C(=O)N[C@@H](CCCCNC(=O)COCCOCCNC(=O)COCCOCCNC(=O)CC[C@H](NC(=O)CCCCCCCCCOc1ccc(C(=O)O)cc1)C(=O)O)C(=O)N[C@@H](CC(C)C)C(=O)N[C@H](C(=O)N[C@@H](CCCNC(=N)N)C(=O)NCC(=O)N[C@@H](CCCNC(=N)N)C(=O)NCC(=O)O)C(C)C)[C@@H](C)CC)C(C)C)C(C)C)[C@@H](C)O)[C@@H](C)O)C(C)C [Example 3] (H-[NMeI]V[Lac(3-(imidazol-4-yl))]AEGTFTSDVSK([AEEA-AEEA-γGlu-Decanoyl(10-(4-HOOC-PhO))])YLEEQAVREFIAK([AEEA-AEEA-γGlu-Decanoyl(10-(4-HOOC-PhO))])LVRGRG-OH)	25.6	38.5	–
CC[C@H](C)[C@H](N)C(=O)N[C@H](C(=O)O[C@@H](Cc1c[nH]cn1)C(=O)N[C@@H](C)C(=O)N[C@@H](CCC(=O)O)C(=O)NCC(=O)N[C@H](C(=O)N[C@@H](Cc1ccccc1)C(=O)N[C@H](C(=O)N[C@@H](CO)C(=O)N[C@@H](CC(=O)O)C(=O)N[C@H](C(=O)N[C@@H](CO)C(=O)N[C@@H](CCCCNC(=O)COCCOCCNC(=O)COCCOCCNC(=O)CC[C@H](NC(=O)CCCCCCCCCOc1ccc(C(=O)O)cc1)C(=O)O)C(=O)N[C@@H](Cc1ccc(O)cc1)C(=O)N[C@@H](CC(C)C)C(=O)N[C@@H](CCC(=O)O)C(=O)N[C@@H](CCC(=O)O)C(=O)N[C@@H](CCC(N)=O)C(=O)N[C@@H](C)C(=O)N[C@H](C(=O)N[C@@H](CCCNC(=N)N)C(=O)N[C@@H](CCC(=O)O)C(=O)N[C@@H](Cc1ccccc1)C(=O)N[C@H](C(=O)N[C@@H](C)C(=O)N[C@@H](CCCCNC(=O)COCCOCCNC(=O)COCCOCCNC(=O)CC[C@H](NC(=O)CCCCCCCCCOc1ccc(C(=O)O)cc1)C(=O)O)C(=O)N[C@@H](CC(C)C)C(=O)N[C@H](C(=O)N[C@@H](CCCNC(=N)N)C(=O)NCC(=O)N[C@@H](CCCNC(=N)N)C(=O)NCC(=O)O)C(C)C)[C@@H](C)CC)C(C)C)C(C)C)[C@@H](C)O)[C@@H](C)O)C(C)C [Example 3a] (H-IV[Lac(3-(imidazol-4-yl))]AEGTFTSDVSK([AEEA-AEEA-γGlu-Decanoyl(10-(4-HOOC-PhO))])YLEEQAVREFIAK([AEEA-AEEA-γGlu-Decanoyl(10-(4-HOOC-PhO))])LVRGRG-OH)	5	7.5	–
CC[C@H](C)[C@H](NC)C(=O)N[C@H](C(=O)O[C@@H](Cc1c[nH]cn1)C(=O)N[C@@H](C)C(=O)N[C@@H](CCC(=O)O)C(=O)NCC(=O)N[C@H](C(=O)N[C@@H](Cc1ccccc1)C(=O)N[C@H](C(=O)N[C@@H](CO)C(=O)N[C@@H](CC(=O)O)C(=O)N[C@H](C(=O)N[C@@H](CO)C(=O)N[C@@H](CCCCNC(=O)COCCOCCNC(=O)COCCOCCNC(=O)CC[C@H](NC(=O)CCCCCCCCCOc1ccc(C(=O)O)cc1)C(=O)O)C(=O)N[C@@H](Cc1ccc(O)cc1)C(=O)N[C@@H](CC(C)C)C(=O)N[C@@H](CCC(=O)O)C(=O)N[C@@H](CCC(=O)O)C(=O)N[C@@H](CCC(N)=O)C(=O)N[C@@H](C)C(=O)N[C@@H](C)C(=O)N[C@@H](CCCCNC(=O)COCCOCCNC(=O)COCCOCCNC(=O)CC[C@H](NC(=O)CCCCCCCCCOc1ccc(C(=O)O)cc1)C(=O)O)C(=O)N[C@@H](CCC(=O)O)C(=O)N[C@@H](Cc1ccccc1)C(=O)N[C@H](C(=O)N[C@@H](C)C(=O)N[C@@H](Cc1c[nH]c2ccccc12)C(=O)N[C@@H](CC(C)C)C(=O)N[C@H](C(=O)N[C@@H](CCC(N)=O)C(=O)NCC(=O)N[C@@H](CCCNC(=N)N)C(=O)NCC(=O)O)C(C)C)[C@@H](C)CC)C(C)C)[C@@H](C)O)[C@@H](C)O)C(C)C [Example 5]	32.2	–	37.9
